Patent US20250032524A1, “BROAD SPECTRUM AMINOGLYCOSIDES AND USES THEREOF” (REVAGENIX, INC., priority 2022, published 2025)

Experiments:
K. aerogenes = assay: MIC broth microdilution (CLSI); type: cell-based; settings: strain AEAE1042, MDR Clinical isolate (CDC CRE panel), CDC AR Bank 0161
Procedure: (§1) Minimum inhibitory concentrations for representative example compounds herein were determined by a broth microdilution method in accordance with the Clinical and Laboratory Standards Institute (CLSI) guidelines. In brief, organism suspensions were adjusted to a 0.5 McFarland standard to yield a final inoculum between 3×10^5 and 7×10^5 colony-forming units (CFU)/mL. The inoculum was prepared by suspension of a colony from an agar plate that was prepared the previous day. Compound dilutions and inoculum were prepared in sterile, cation adjusted Mueller-Hinton Broth (Beckton Dickinson).
(§2) Bacteria were suspended in sterile saline and added to each assay plate to obtain a final concentration of 5×10^5 CFU/mL. An inoculum volume of 100 μL was added to wells containing 100 μL of broth with 2-fold serial dilutions of the test compound. All inoculated microdilution trays were incubated in ambient air at 35° C. for 18-24 hours. Following incubation, the lowest concentration of the compound that prevented visible growth (OD 600 nm<0.05) is recorded was the MIC. […] Performance of the assay was monitored by the use of laboratory quality-control strains and a standard compound with a defined MIC spectrum (neomycin), in accordance with CLSI guidelines.

S. aureus = assay: MIC broth microdilution (CLSI); type: cell-based
Procedure: as §1, §2

P. mirabilis = assay: MIC broth microdilution (CLSI); type: cell-based; settings: strain APMI1048, MDR Clinical isolate (CDC CRE panel), CDC AR Bank 0159
Procedure: as §1, §2

E. coli = assay: MIC broth microdilution (CLSI); type: cell-based
Procedure: as §1, §2

A. baumannii = assay: MIC broth microdilution (CLSI); type: cell-based
Procedure: as §1, §2

P. aeruginosa = assay: MIC broth microdilution (CLSI); type: cell-based
Procedure: as §1, §2

S. enterica = assay: MIC broth microdilution (CLSI); type: cell-based; settings: strain ASSE1001, MDR Clinical isolate (CDC CRE panel), CDC AR Bank 0127
Procedure: as §1, §2

C. freundii = assay: MIC broth microdilution (CLSI); type: cell-based; settings: strain ACSP1001, MDR Clinical isolate (CDC CRE panel), CDC AR Bank 0157
Procedure: as §1, §2

K. pneumoniae = assay: MIC broth microdilution (CLSI); type: cell-based
Procedure: as §1, §2

E. cloacae = assay: MIC broth microdilution (CLSI); type: cell-based; settings: strain AECL1089, MDR Clinical isolate (CDC CRE panel), CDC AR Bank 0154
Procedure: as §1, §2

[1] = tested on: A. baumannii strain CDC-313; assay: Neutropenic mouse lung infection model; type: in vivo; settings: neutropenic CD-1 male mice, FIG. 15

NC[C@@H]1O[C@H](O[C@H]2[C@@H](O)[C@H](O[C@@H]3[C@@H](O)[C@H](N)C[C@H](N)[C@H]3O[C@H]3O[C@H](CN)[C@@H](O)[C@H](O)[C@H]3N)O[C@@H]2CO)[C@H](N)[C@@H](O)[C@@H]1O [NEO, neomycin, reference compound]
Activity (MIC) (K. aerogenes): + (MIC threshold for positive activity (+) is ≤16 μg/mL)
Activity (MIC) (S. aureus; strain NSAU001, wild-type, QC, ATCC 29213): + (MIC threshold for positive activity (+) is ≤16 μg/mL)
Activity (MIC) (S. aureus; strain NSAU1004, MDR Clinical isolate): + (MIC threshold for positive activity (+) is ≤16 μg/mL)
Activity (MIC) (S. aureus; strain NSAU1015, MDR Clinical isolate): + (MIC threshold for positive activity (+) is ≤16 μg/mL)
Activity (MIC) (S. aureus; strain NSAU1023, MDR Clinical isolate): − (for inactive (−) is >16 μg/mL)
Activity (MIC) (S. aureus; strain NSAU1063, MDR Clinical isolate): − (for inactive (−) is >16 μg/mL)
Activity (MIC) (P. mirabilis): + (MIC threshold for positive activity (+) is ≤16 μg/mL)
Activity (MIC) (E. coli; strain AECO1225, MDR Clinical isolate (CDC CRE panel), CDC AR Bank 0118): + (MIC threshold for positive activity (+) is ≤16 μg/mL)
Activity (MIC) (E. coli; strain AECO1226, MDR Clinical isolate (CDC CRE panel), CDC AR Bank 0119): + (MIC threshold for positive activity (+) is ≤16 μg/mL)
Activity (MIC) (E. coli; strain AECO1227, MDR Clinical isolate (CDC CRE panel), CDC AR Bank 0128): + (MIC threshold for positive activity (+) is ≤16 μg/mL)
Activity (MIC) (E. coli; strain NECO0001, WT QC): + (MIC threshold for positive activity (+) is ≤16 μg/mL)
Activity (MIC) (E. coli; strain NECO0002, WT): + (MIC threshold for positive activity (+) is ≤16 μg/mL)
Activity (MIC) (E. coli; strain NECO0003, ΔtolC): + (MIC threshold for positive activity (+) is ≤16 μg/mL)
Activity (MIC) (E. coli; strain NECO0243, empty vector): + (MIC threshold for positive activity (+) is ≤16 μg/mL)
Activity (MIC) (E. coli; strain NECO0244, AAC(6')-Ib): + (MIC threshold for positive activity (+) is ≤16 μg/mL)
Activity (MIC) (E. coli; strain NECO0245, ArmA): + (MIC threshold for positive activity (+) is ≤16 μg/mL)
Activity (MIC) (E. coli; strain NECO0289, APH(3')-Ia): − (for inactive (−) is >16 μg/mL)
Activity (MIC) (E. coli; strain NECO0302, AAC(3)-IIa): + (MIC threshold for positive activity (+) is ≤16 μg/mL)
Activity (MIC) (E. coli; strain NECO0350, AAC(2')-I): + (MIC threshold for positive activity (+) is ≤16 μg/mL)
Activity (MIC) (E. coli; strain NECO0359, ANT(4')-Ia): + (MIC threshold for positive activity (+) is ≤16 μg/mL)
Activity (MIC) (A. baumannii; strain NABA0006, WT parent): + (MIC threshold for positive activity (+) is ≤16 μg/mL)
Activity (MIC) (A. baumannii; strain NABA0007, ΔadeJK efflux): + (MIC threshold for positive activity (+) is ≤16 μg/mL)
Activity (MIC) (A. baumannii; strain NABA0020, AME negative strain): + (MIC threshold for positive activity (+) is ≤16 μg/mL)
Activity (MIC) (A. baumannii; strain NABA1427, MDR Clinical isolate): − (for inactive (−) is >16 μg/mL)
Activity (MIC) (A. baumannii; strain NABA1433, MDR Clinical isolate): − (for inactive (−) is >16 μg/mL)
Activity (MIC) (A. baumannii; strain NABA1434, MDR Clinical isolate): + (MIC threshold for positive activity (+) is ≤16 μg/mL)
Activity (MIC) (A. baumannii; strain NABA1436, MDR Clinical isolate): − (for inactive (−) is >16 μg/mL)
Activity (MIC) (A. baumannii; strain NABA1437, MDR Clinical isolate): + (MIC threshold for positive activity (+) is ≤16 μg/mL)
Activity (MIC) (A. baumannii; strain NABA1438, MDR Clinical isolate): − (for inactive (−) is >16 μg/mL)
Activity (MIC) (A. baumannii; strain NABA1439, MDR Clinical isolate): − (for inactive (−) is >16 μg/mL)
Activity (MIC) (A. baumannii; strain NABA1448, MDR Clinical isolate): − (for inactive (−) is >16 μg/mL)
Activity (MIC) (A. baumannii; strain NABA1449, MDR Clinical isolate): + (MIC threshold for positive activity (+) is ≤16 μg/mL)
Activity (MIC) (A. baumannii; strain NABA1450, MDR Clinical isolate): − (for inactive (−) is >16 μg/mL)
Activity (MIC) (P. aeruginosa; strain NPAE0001, WT Aph(3')-IIb, QC): − (for inactive (−) is >16 μg/mL)
Activity (MIC) (P. aeruginosa; strain NPAE0002, WT Aph(3')-IIb): + (MIC threshold for positive activity (+) is ≤16 μg/mL)
Activity (MIC) (P. aeruginosa; strain NPAE0006, Efflux KO, Aph(3')-IIb): + (MIC threshold for positive activity (+) is ≤16 μg/mL)
Activity (MIC) (P. aeruginosa; strain NPAE0010, MexXY over-expressed, Aph(3')-IIb): − (for inactive (−) is >16 μg/mL)
Activity (MIC) (P. aeruginosa; strain NPAE0359, aph(3')-IIb KO (tetR)): − (for inactive (−) is >16 μg/mL)
Activity (MIC) (P. aeruginosa; strain NPAE1288, MDR Clinical isolate): − (for inactive (−) is >16 μg/mL)
Activity (MIC) (P. aeruginosa; strain NPAE1293, MDR Clinical isolate): − (for inactive (−) is >16 μg/mL)
Activity (MIC) (P. aeruginosa; strain NPAE1299, MDR Clinical isolate): − (for inactive (−) is >16 μg/mL)
Activity (MIC) (P. aeruginosa; strain NPAE1302, MDR Clinical isolate): − (for inactive (−) is >16 μg/mL)
Activity (MIC) (P. aeruginosa; strain NPAE1303, MDR Clinical isolate): − (for inactive (−) is >16 μg/mL)
Activity (MIC) (P. aeruginosa; strain NPAE1308, MDR Clinical isolate): − (for inactive (−) is >16 μg/mL)
Activity (MIC) (P. aeruginosa; strain NPAE1310, MDR Clinical isolate): + (MIC threshold for positive activity (+) is ≤16 μg/mL)
Activity (MIC) (P. aeruginosa; strain NPAE1313, MDR Clinical isolate): − (for inactive (−) is >16 μg/mL)
Activity (MIC) (P. aeruginosa; strain NPAE1316, MDR Clinical isolate): + (MIC threshold for positive activity (+) is ≤16 μg/mL)
Activity (MIC) (P. aeruginosa; strain NPAE1323, MDR Clinical isolate): − (for inactive (−) is >16 μg/mL)
Activity (MIC) (S. enterica): + (MIC threshold for positive activity (+) is ≤16 μg/mL)
Activity (MIC) (C. freundii): − (for inactive (−) is >16 μg/mL)
Activity (MIC) (K. pneumoniae; strain AKPN1246, MDR Clinical isolate (CDC CRE panel), CDC AR Bank 0139): + (MIC threshold for positive activity (+) is ≤16 μg/mL)
Activity (MIC) (K. pneumoniae; strain AKPN1250, MDR Clinical isolate (CDC CRE panel), CDC AR Bank 0143): + (MIC threshold for positive activity (+) is ≤16 μg/mL)
Activity (MIC) (K. pneumoniae; strain AKPN1253, MDR Clinical isolate (CDC CRE panel), CDC AR Bank 0148): + (MIC threshold for positive activity (+) is ≤16 μg/mL)
Activity (MIC) (K. pneumoniae; strain AKPN1255, MDR Clinical isolate (CDC CRE panel), CDC AR Bank 0153): + (MIC threshold for positive activity (+) is ≤16 μg/mL)
Activity (MIC) (E. cloacae): + (MIC threshold for positive activity (+) is ≤16 μg/mL)

NCC[C@H](O)C(=O)N[C@@H]1C[C@H](N)[C@@H](O[C@H]2O[C@H](CN)[C@@H](O)[C@H](O)[C@H]2O)[C@H](O)[C@H]1O[C@H]1O[C@H](CO)[C@@H](O)[C@H](N)[C@H]1O [amikacin]
in vivo antibacterial activity against the strain [1]: minimal activity
